{
  "source": "patent US20030166007A1",
  "about": "“Chemical proteomics” (MDS Proteomics Inc., priority 2002, published 2003)",
  "key": {"[1]": {"biological_target": "T1, muscle glycogen phosphorylase b (Homo sapiens, UniProt P11217)", "T1 sequence (P11217 1-842)": "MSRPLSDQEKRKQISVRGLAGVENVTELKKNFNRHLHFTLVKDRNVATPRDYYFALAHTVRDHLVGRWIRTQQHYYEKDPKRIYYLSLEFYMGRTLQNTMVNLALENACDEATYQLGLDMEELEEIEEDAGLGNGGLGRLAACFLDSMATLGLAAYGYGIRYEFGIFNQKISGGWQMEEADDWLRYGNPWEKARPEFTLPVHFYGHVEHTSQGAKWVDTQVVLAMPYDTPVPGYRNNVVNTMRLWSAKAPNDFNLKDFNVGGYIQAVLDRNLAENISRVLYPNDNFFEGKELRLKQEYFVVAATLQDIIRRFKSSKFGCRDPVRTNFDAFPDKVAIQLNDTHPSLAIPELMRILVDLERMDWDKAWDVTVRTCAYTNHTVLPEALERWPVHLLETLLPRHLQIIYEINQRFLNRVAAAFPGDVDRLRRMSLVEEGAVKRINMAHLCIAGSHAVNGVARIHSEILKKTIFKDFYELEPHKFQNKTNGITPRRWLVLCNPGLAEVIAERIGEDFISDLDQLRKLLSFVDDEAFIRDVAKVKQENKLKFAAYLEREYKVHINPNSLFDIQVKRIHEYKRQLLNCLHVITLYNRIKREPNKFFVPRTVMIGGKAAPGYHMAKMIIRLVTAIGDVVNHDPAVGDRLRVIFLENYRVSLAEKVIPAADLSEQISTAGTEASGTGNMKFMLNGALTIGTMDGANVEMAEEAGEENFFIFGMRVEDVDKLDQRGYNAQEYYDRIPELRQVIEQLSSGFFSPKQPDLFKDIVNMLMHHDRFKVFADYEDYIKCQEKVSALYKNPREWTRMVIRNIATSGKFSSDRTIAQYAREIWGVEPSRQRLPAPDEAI", "conditions": "cited from earlier work"}, "[2]": {"biological_target": "T2, Nudix 1 (Homo sapiens, UniProt P36639)", "T2 construct": "endogenous in cells; host or cells: HEK 293", "assay": "MTX-agarose affinity chromatography of cell lysate, MS identification", "assay_type": "binding", "conditions": "HEK 293 lysate", "protocol": "(§1) After incubation for 30 minutes at 4° C. with shaking, the lysates were clarified by centrifugation (27,000×g). In some experiments, cells were lysed using 20 strokes of a Dounce® homogenizer in the absence of detergents. […] While optimizing the protocol, however, several experimental variations were tested on cell lysates including concentration by ammonium sulfate precipitation, or removal of nucleic acid with Streptomycin sulfate. In such cases, the protein sample was desalted using a PD 10 protein-desalting column (Pharmacia), which had been pre-equilibrated in the same buffer (10 mM potassium phosphate pH 7.5)\n(§2) Affinity Chromatography: The desalted lysate was loaded onto a column of pre-equilibrated MTX-agarose (Sigma, 50 μL bed volume) or sepharose 4B agarose as a negative control. The lysates were allowed to slowly flow through the matrix under gravity flow. […] Retentates from the microcons were then loaded onto SDS-PAGE 4%-15% gradient mini gels (Bio-Rad). […]\n(§3) The peptides were then separated by reverse phase chromatography on C18 resin and directly injected into a mass spectrometer using an automated sample-loading device from 96 well plates. […] The spectra generated were analyzed on a custom-built multi-node server platform (RADARS, ProteoMetrics), which uses two database searching programs, Sonar (ProteoMetrics) and Mascot (Matrix Sciences). […]"}, "[3]": {"biological_target": "T3, Glutathione synthase (Homo sapiens, UniProt P48637)", "T3 construct": "endogenous in cells; host or cells: HEK 293", "T3 sequence (P48637 1-474)": "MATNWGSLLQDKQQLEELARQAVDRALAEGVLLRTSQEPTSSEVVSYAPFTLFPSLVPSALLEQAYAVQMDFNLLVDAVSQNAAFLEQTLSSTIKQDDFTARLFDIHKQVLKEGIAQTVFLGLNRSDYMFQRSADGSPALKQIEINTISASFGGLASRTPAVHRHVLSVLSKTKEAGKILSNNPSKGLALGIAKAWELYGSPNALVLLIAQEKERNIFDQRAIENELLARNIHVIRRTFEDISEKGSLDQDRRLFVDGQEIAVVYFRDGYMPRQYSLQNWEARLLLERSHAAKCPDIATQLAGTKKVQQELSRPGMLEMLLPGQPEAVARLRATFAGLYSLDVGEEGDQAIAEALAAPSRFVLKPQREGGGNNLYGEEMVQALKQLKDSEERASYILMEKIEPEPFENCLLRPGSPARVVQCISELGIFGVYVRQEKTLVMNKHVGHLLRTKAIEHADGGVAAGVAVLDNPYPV", "assay": "MTX-agarose affinity chromatography of cell lysate, MS identification", "assay_type": "binding", "conditions": "HEK 293 lysate", "protocol": "as §1, §2, §3"}, "[4]": {"biological_target": "T4, Deoxyguanosine kinase (Homo sapiens, UniProt Q16854)", "T4 construct": "endogenous in cells; host or cells: HEK 293", "T4 sequence (Q16854 40-277)": "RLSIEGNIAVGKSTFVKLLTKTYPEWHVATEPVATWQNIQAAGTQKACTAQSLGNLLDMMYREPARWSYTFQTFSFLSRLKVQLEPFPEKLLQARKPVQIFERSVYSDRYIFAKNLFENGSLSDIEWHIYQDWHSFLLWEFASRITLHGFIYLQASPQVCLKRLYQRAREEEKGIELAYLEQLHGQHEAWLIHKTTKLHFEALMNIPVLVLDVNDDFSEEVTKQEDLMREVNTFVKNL", "assay": "MTX-agarose affinity chromatography of cell lysate, MS identification", "assay_type": "binding", "conditions": "HEK 293 lysate", "protocol": "as §1, §2, §3"}, "[5]": {"tested_on": "Glycogen Phosphorylase", "assay": "MTX-agarose affinity chromatography of cell lysate, MS identification", "assay_type": "binding, human", "conditions": "HEK 293 lysate", "protocol": "as §1, §2, §3"}, "[6]": {"biological_target": "T5, Pyridoxal Kinase (Homo sapiens, UniProt O00764)", "T5 construct": "endogenous in cells; host or cells: HEK 293", "T5 sequence (O00764 1-312)": "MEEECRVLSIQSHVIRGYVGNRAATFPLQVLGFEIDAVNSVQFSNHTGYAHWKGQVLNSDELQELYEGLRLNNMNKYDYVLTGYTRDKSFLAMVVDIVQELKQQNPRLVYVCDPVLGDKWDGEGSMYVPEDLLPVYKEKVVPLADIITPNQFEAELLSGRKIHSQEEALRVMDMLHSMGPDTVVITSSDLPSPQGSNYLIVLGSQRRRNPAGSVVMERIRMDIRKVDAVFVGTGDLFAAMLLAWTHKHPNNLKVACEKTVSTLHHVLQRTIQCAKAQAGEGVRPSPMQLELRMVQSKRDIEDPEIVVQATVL", "assay": "MTX-agarose affinity chromatography of cell lysate, MS identification", "assay_type": "binding", "conditions": "HEK 293 lysate", "protocol": "as §1, §2, §3"}, "[7]": {"tested_on": "Glycinamideribonucleotide synthase (GARS)", "assay": "MTX-agarose affinity chromatography of cell lysate, MS identification", "assay_type": "binding, human", "conditions": "HEK 293 lysate; 110 kDa trifunctional protein and separate 50 kDa band", "protocol": "as §1, §2, §3"}, "[8]": {"biological_target": "T6, Pterin-4-alpha-carbinolamine dehydrogenase (PCD) (Homo sapiens, UniProt P61457)", "T6 construct": "endogenous in cells; host or cells: HEK 293", "T6 sequence (P61457 1-104)": "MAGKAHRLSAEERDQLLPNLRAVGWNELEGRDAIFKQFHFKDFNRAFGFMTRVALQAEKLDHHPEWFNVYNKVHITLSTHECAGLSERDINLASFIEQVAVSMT", "assay": "MTX-agarose affinity chromatography of cell lysate, MS identification", "assay_type": "binding", "conditions": "HEK 293 lysate", "protocol": "as §1, §2, §3"}, "[9]": {"tested_on": "intracellular levels of PRPP", "conditions": "reversible upon treatment with hypoxanthine; cited from earlier work"}, "[10]": {"biological_target": "T7, HPRT (Homo sapiens, UniProt P00492)", "T7 sequence (P00492 1-218)": "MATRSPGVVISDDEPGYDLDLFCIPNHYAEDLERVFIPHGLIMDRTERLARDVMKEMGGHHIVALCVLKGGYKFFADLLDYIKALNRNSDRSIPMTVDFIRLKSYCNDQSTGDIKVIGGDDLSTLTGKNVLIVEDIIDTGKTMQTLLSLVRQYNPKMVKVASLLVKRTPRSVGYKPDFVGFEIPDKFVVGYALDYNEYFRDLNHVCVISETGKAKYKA", "conditions": "cited from earlier work"}, "[11]": {"tested_on": "purine de novo synthesis in leukemia cells", "conditions": "on treatment with Methotrexate; cited from earlier work"}},
  "note": "“Also recorded” adds a separate entry of the source.",
  "data": [
    {"compound": "CN(Cc1cnc2nc(N)nc(N)c2n1)c1ccc(C(=O)N[C@@H](CCC(=O)O)C(=O)O)cc1", "note": "[Methotrexate]", "values": [
      {"measurement": "inhibition of muscle glycogen phosphorylase b", "setting": "[1]", "result": "reversible inhibitors"},
      {"measurement": "Association with the Methotrexate matrix", "setting": "[2]", "result": "consistently found"},
      {"measurement": "Association with the Methotrexate matrix", "setting": "[3]", "result": "consistently found"},
      {"measurement": "Protein identified by Mass Spec.; New MTX interactor", "setting": "[4]", "result": "binds to Methotrexate through a direct interaction"},
      {"measurement": "Protein identified by Mass Spec.; New MTX interactor", "setting": "[4]; listed as MTX", "result": "✓"},
      {"measurement": "Protein identified by Mass Spec.; New MTX interactor", "setting": "[5]", "result": "direct binder of Methotrexate"},
      {"measurement": "Protein identified by Mass Spec.; New MTX interactor", "setting": "[5]; listed as MTX", "result": "✓"},
      {"measurement": "Protein identified by Mass Spec.; New MTX interactor", "setting": "[6]", "result": "direct binder of Methotrexate"},
      {"measurement": "Protein identified by Mass Spec.; New MTX interactor", "setting": "[6]; listed as MTX", "result": "✓"},
      {"measurement": "Association with the Methotrexate matrix", "setting": "[7]", "result": "GARS-derived peptides were isolated"},
      {"measurement": "Protein identified by Mass Spec.; New MTX interactor", "setting": "[8]", "result": "binds directly to Methotrexate"},
      {"measurement": "Protein identified by Mass Spec.; New MTX interactor", "setting": "[8]; listed as MTX", "result": "✓"},
      {"measurement": "effect on levels of PRPP", "setting": "[9]", "result": "raising the intracellular levels of PRPP; also recorded: increase on levels of PRPP"},
      {"measurement": "effect on activity of HPRT", "setting": "[10]", "result": "can reduce the activity of HPRT"},
      {"measurement": "accumulation of 5-phosphoribosyl-1-pyrophosphate", "setting": "[11]", "result": "3-4 fold"},
      {"measurement": "de novo purine pathway", "setting": "[11]", "result": "completely blocked"}
    ]}
  ]
}
